Test results as given in patent US5952189A (priority 1997, dated 1999).
Values joined by “and” are separate entries in the source; they are usually repeats but may differ in a detail not shown here. Identical values can stand only once. “Also recorded” adds a separate entry of the source.

Tests used:
U937 cells = assay: cells; format: cell-based, human
3T3 = assay: Inhibition of UV-induced DNA fragmentation in 3T3 cells; format: cell-based, murine; conditions: UV 0.5 J/cm^2, 8 h, no inhibitor 38 ± 1.9
Description: To determine if these findings were unique to U937 or if other cell lines also require protease activity to undergo apoptosis, the effects of several inhibitors on apoptosis induced by UV light in the human mammary carcinoma, BT-20, the murine fibroblast cell line, 3T3, and the human myeloid leukemia, HL-60 were tested. For the BT-20 and 3T3 cells, target cells were pretreated for one hour (with or without inhibitors as indicated in the table) and exposed to UV light at 0.5 J/cm^2 and then incubated for eight hours prior to assessing DNA fragmentation. HL-60 cells were pretreated for one hour (with or without inhibitors as indicated in the table) and exposed to UV at 0.2 J/cm^2 and then incubated for two hours prior to assessing DNA fragmentation.
DNA fragmentation assays were carried out according to the protocol of Wright S. C., et al. (1,992) J. Cell. Biochem. 48, 344-355. Target cells were labeled with ^3 H-thymidine and plated in triplicate in flat bottom microtiter plates. Cells were incubated for the indicated length of time for each experiment in the presence of TNF or various inhibitors. In some experiments, cells were treated with UV light at 245 nm using a UV Crosslinker (Fisher Scientific). Assays were harvested and counted on a Packard matrix 96 beta counter. Percent DNA fragmentation was calculated as for the nuclear assay described in Example 3. In assays to test the effects of various inhibitors, the pH of extra wells containing assay buffer, target cells, and each inhibitor was always checked at the beginning and end of each assay to assure that the pH remained at 7.5.

isolated U937 nuclei = assay: DNA fragmentation assay using isolated U937 nuclei; format: cell-based, human; conditions: inhibitor 50 μM (FIG. 6B)
Description: U937 cells were labeled with ^3 H-thymidine by culturing overnight with isotope at 0.5 μCi/ml. The cells were pelleted, washed once, and the cytoplasmic membrane lysed by resuspending the cells in assay buffer (50 mM Tris, 250 mM sucrose 10 mM MgSO4, pH 7.5) plus 0.02% NP-40. Nuclei were then pelleted and resuspended in assay buffer at 1×10^6 /ml. The assay was set up in triplicate in flat bottom microtiter plates under sterile conditions. Nuclei (0.05 ml) were mixed with 0.05 ml of sample diluted in 50 mM Tris pH 7.5 or buffer alone to determine total counts. Plates were incubated for 5 h at 37° C. and then harvested by the addition of 0.1 ml of harvesting buffer (10 mM Tris, 10 mM EDTA, 0.3% Triton X-100, pH 7.5). Plates were harvested by filtration onto glass fiber paper and counted on a Packard Matrix 96 beta counter. Percent DNA fragmentation was calculated as follows: […]

[1] = system: TNF-induced hepatocyte apoptosis; assay: TNF-induced hepatotoxicity in mice (serum transaminases); format: in vivo, Balb/c mice; conditions: for AST: without DK120 78
Description: In this example the concept that a protease inhibitor such as DK120 may attenuate inappropriate apoptosis that causes tissue damage in systemic inflammatory response syndrome (SIRS) was tested. TNF-induced hepatocyte apoptosis in mice was performed as described by Leist et al. ((1995) J. Immunol. 154:1778-1786). Briefly, Balb/c mice were injected ip with […] murine TNF combined with […] Actinomycin D/mouse. Twelve h later, mice were anesthetized and bled from the heart to measure serum transaminase levels, which are standard clinically used indicators of liver damage. Mice that were treated with protease inhibitors were injected ip with these compounds 30 min. prior to TNF. Alanine aminotransferase (ALT) and aspartate aminotransferase (AST) were assayed using a commercially available kit (Sigma). […] However, treatment with DK120 caused a doss-dependent decrease in serum transaminase levels. […] However, a drug that nonspecifically blocks all apoptotic pathways that normally function to maintain homeostasis may not be clinically desirable. Subsequent studies were performed to determine if DK120 could also suppress hepatocyte apoptosis in response to a different stimulus.
(§1) ^1 Mice (2 for each treatment) were injected ip +/- DK120 30 min prio
to TNF and Actinomycin D. Twelve h later serum transaminase levels were
To further explore the specificity of DK120 attenuation of TNF-induced hepatotoxicity, several compounds were tested that were found previously not to inhibit apoptotic protease proteolytic activity as measured against a synthetic substrate (data not shown). […] Therefore, the protection mediated by DK120 is not a property of any boron-containing molecule.
^1 Mice (3 for each treatment) were injected ip +/- the inhibitors 30
min prior to TNF and Actinomycin D. Twelve h later serum transaminase

[2] = system: anti-Fas-induced hepatocyte apoptosis; assay: Anti-Fas induced hepatotoxicity in mice (serum transaminases); format: in vivo
Description: It has been previously shown that injection of mice with antibodies directed against the Fas antigen causes hepatocyte apoptosis and death due to liver failure (Ogasawara et al. (1993) Nature 364:806-809). Therefore, the effects of administration of DK120 to mice injected with antibodies directed against the murine Fas antigen were tested.
as §1
to antiFas antibodies. Twelve h later serum transaminase levels were […]

[3] = system: SEB-induced hepatotoxicity; format: in vivo, mice; conditions: Gln + SEB + DK120 5 mg/kg
mice = assay: Toxicity of DK120 in mice on daily injection; format: in vivo
Description: In preliminary studies daily injection of mice with DK120 at 20 mg/kg was lethal. The reason for toxicity is not clear but may be related to the ability of DK120 to inhibit chymotrypsin-like enzymes that may be essential for the normal function of various tissues.

[4] = system: LPS-induced hepatotoxicity
[5] = system: chymotrypsin-like enzymes; conditions: cited from earlier work

Q: With `C[C@H](NC(=O)OCc1ccccc1)C(=O)N[C@@H](C)C(=O)NC(Cc1ccccc1)B(O)O` (stereo partly drawn) [DK120, carbobenzoxy-ala-ala-borophe] as the molecule, how does the IC50 (U937 cells; Homo sapiens, U-937, read-out: IC50 (Active Concentration), TNF and UV-light induced apoptosis) read?
A: 1200 nM

Q: What about the “Concentration of maximum suppression of DNA fragmentation” value (U937 cells; U937, TNF 1.0 ng/ml plus cycloheximide or UV 0.1 J/cm^2, 1 h pretreatment (FIG. 1)) of the same molecule?
A: 2.0 µM

Q: What about the “Effect on DNA fragmentation induced by TNF or UV light” value (U937 cells; U937 cells, result in words) of the same molecule?
A: suppressed DNA fragmentation; also recorded: dose-dependently inhibit DNA fragmentation

Q: And the “% DNA fragmentation” value (3T3; inhibitor 1 μM)?
A: 24 ± 0.3%

Q: What about the “% DNA fragmentation” value (3T3; inhibitor 5 μM) of the same molecule?
A: 19 ± 1.9%

Q: What about the “Inhibition of nuclear DNA fragmenting activity of protease from UV-treated cells” value (isolated U937 nuclei) of the same molecule?
A: inhibited

Q: What about the AST ([1]; Table 7, DK120 1 mg/kg ip 30 min prior to Actinomycin D + TNF, 12 h) of the same molecule?
A: 64 U/ml

Q: What about the ALT ([1]; Table 7, DK120 1 mg/kg ip 30 min prior to Actinomycin D + TNF, 12 h, without DK120 398) of the same molecule?
A: 232 U/ml

Q: What about the AST ([1]; Table 7, DK120 2.5 mg/kg ip 30 min prior to Actinomycin D + TNF, 12 h) of the same molecule?
A: 47 U/ml

Q: And the ALT ([1]; Table 7, DK120 2.5 mg/kg ip 30 min prior to Actinomycin D + TNF, 12 h, without DK120 398)?
A: 145 U/ml

Q: What about the ALT ([1]; Table 7, DK120 5 mg/kg ip 30 min prior to Actinomycin D + TNF, 12 h, without DK120 398) of the same molecule?
A: 123 U/ml

Q: And the AST ([1]; Table 7, DK120 10 mg/kg ip 30 min prior to Actinomycin D + TNF, 12 h)?
A: 56 U/ml

Q: What about the ALT ([1]; Table 7, DK120 10 mg/kg ip 30 min prior to Actinomycin D + TNF, 12 h, without DK120 398) of the same molecule?
A: 50 U/ml

Q: What about the “Protection from TNF-induced hepatotoxicity” value ([1]; Table 10, 10 mg/kg) of the same molecule?
A: reduced levels of ALT to close to that of Actinomycin D alone

Q: What about the “Effect on TNF-induced serum transaminase levels” value ([1]; ip 30 min prior to TNF) of the same molecule?
A: reduced transaminase to levels very close to those seen in mice injected with Actinomycin D only

Q: What about the ALT ([1]; mouse, in vivo) of the same molecule?
A: 190 +/- 21 U/ml and 141 +/- 20 U/ml

Q: And the AST ([2]; DK120 5 mg/kg ip 30 min prior to anti-Fas, 12 h, without DK120 81)?
A: 121 U/ml

Q: What about the ALT ([2]; DK120 5 mg/kg ip 30 min prior to anti-Fas, 12 h, without DK120 513) of the same molecule?
A: 746 U/ml

Q: What about the “Effect on anti-Fas induced elevation of serum transaminases” value ([2]; mouse, in vivo) of the same molecule?
A: did not counteract the elevation of serum transaminases induced by anti-Fas antibodies

Q: What about the “% Mortality” value ([3]; without DK120 33) of the same molecule?
A: 0%

Q: What about the AST ([3]; without DK120 119) of the same molecule?
A: 72 +/- 13 U/ml

Q: What about the ALT ([3]; without DK120 339) of the same molecule?
A: 205 +/- 28 U/ml

Q: What about the Lethality (mice; daily injection, 20 mg/kg, preliminary studies) of the same molecule?
A: lethal

Q: What about the “Toxicity of compound alone” value (mice; mouse, in vivo) of the same molecule?
A: relatively toxic

Q: What about the “% Mortality” value ([4]; Gln + LPS + DK120 5 mg/kg, without DK120 33) of the same molecule?
A: 0%

Q: And the AST ([4]; Gln + LPS + DK120 5 mg/kg, without DK120 100)?
A: 79 +/- 10 U/ml

Q: And the ALT ([4]; Gln + LPS + DK120 5 mg/kg, without DK120 334)?
A: 182 +/- 17 U/ml

Q: What about the “Effect on serum transaminase levels after LPS or SEB” value ([4]; LPS or SEB plus Gln, DK120 30 min prior) of the same molecule?
A: significant reduction in the serum transaminase levels

Q: What about the “Effect on LPS-induced mortality, long term survival (FIG. 9)” value ([4]; mouse, in vivo) of the same molecule?
A: could delay or prevent LPS-induced mortality

Q: And the “Inhibition of chymotrypsin / chymotrypsin-like enzymes” value [5]?
A: reversible inhibitor of chymotrypsin; also recorded: potently inhibits chymotrypsin-like enzymes
